Measurements: publication PMC8032764 (Scientific Reports, 2021)
Read-outs that look alike come from different tables or passages of the source.

How the values were obtained:
[1] = biological target: T1, human GABAA α2β3γ2 receptors (Homo sapiens, UniProt P18507+P47869); experiment: [3H]-flumazenil competition binding, HEK293 membranes; conditions: 1 nM [3H]-flumazenil
T1 construct: expressed in transfected cells; host or cells: HEK293-EBNA, transient
Experimental: (§1) HEK293-EBNA cells adapted to grow in suspension were transiently transfected with the plasmids containing the desired GABAA receptor subunit cDNAs at α, β, γ, 1:1:2 ratio using XtremeGENE Q2 (Cat. No. 03045595001, Roche Applied Science, RAS, Rotkreuz, Switzerland) as previously described. GABAA α1β2γ2, α2β3γ2, α3β3γ2, α4β3γ2, α5β3γ2 and α6β3γ2 receptor subtypes were expressed in this system. 48 h post transfection, the cells were harvested and washed three times with cold PBS and frozen at − 80 °C.
(§2) Non-specific binding was determined in the presence of 10 μM diazepam.

[2] = biological target: T2, human GABAA α3β3γ2 receptors (Homo sapiens, UniProt P18507+P34903); experiment: as above; conditions: 1 nM [3H]-flumazenil
T2 construct: expressed in transfected cells; host or cells: HEK293-EBNA, transient
Experimental: as §1, §2

Adenosine A2A = system: T3, Adenosine A2A; experiment: Cerep binding; design: species or system human; conditions: 10 μM; [3H]CGS 21680; hum. recomb. (HEK-293)
T3 construct: host or cells: HEK-293

Cannabinoid CB1 = system: T4, Cannabinoid CB1; experiment: Cerep binding; design: species or system human; conditions: 10 μM; [3H]CP 55940; hum. recomb. (CHO)
T4 construct: host or cells: CHO

Muscarinic M3 = system: T5, Muscarinic M3; experiment: Cerep binding; design: species or system human; conditions: 10 μM; [3H]4-DAMP; hum. recomb. (CHO)
T5 construct: host or cells: CHO

Cholecystokinin CCK1 = system: T6, Cholecystokinin CCK1; experiment: Cerep binding; design: species or system human; conditions: 10 μM; [125I]CCK-8s; hum. recomb. (CHO)
T6 construct: purchased Eurofins Cerep

Endothelin ETA = system: T7, Endothelin ETA; experiment: Cerep binding; design: species or system human; conditions: 10 μM; [125I]endothelin-1; hum. recomb. (CHO)
T7 construct: purchased Eurofins Cerep

Neurokinin NK2 = system: T8, Neurokinin NK2; experiment: Cerep binding; design: species or system human; conditions: 10 μM; [125I]NKA; hum. recomb. (CHO)
T8 construct: purchased Eurofins Cerep

male Lister Hooded rats = experiment: Diazepam-induced spatial learning impairment in the Morris water maze; type: in vivo, rat
Experimental: The current study used a modified version of the standard acquisition protocol, in which pre-trained rats had to learn to locate a new platform position during six trials on the test day, as described previously. Subjects were semi-randomly divided into treatment groups based on their performance on the last training day. A computer tracking system (HVS Image Ltd, UK) was used to analyse each rat’s swim path on-line.
Latency, pathlength and swim speed (Supplementary Fig. S2) were analysed with a one-factor ANOVA. For the probe trial, to determine whether each treatment group had learned the spatial position of the platform, within-subjects ANOVA was used to compare percent time spent in the platform quadrant with the left, right and opposite quadrants. All significant cases were followed by a post hoc Newman–Keuls test. In addition, a comparison between vehicle treated and diazepam-treated rats on the percent time spent in the platform quadrant was analysed using an unpaired t-test.

GABAA-α5 receptors = biological target: T9, GABAA-α5 receptors (Homo sapiens, UniProt P18507+P31644); experiment: Receptor occupancy during EEG assessments; type: in vivo; conditions: 240 mg twice daily
T9 construct: occupancy at the GABAA-α5 subunit-containing receptors in the human brain after oral dosing; from tissue; host or cells: brain of healthy human volunteers, in vivo PET
T9 sequence (P31644 32-462): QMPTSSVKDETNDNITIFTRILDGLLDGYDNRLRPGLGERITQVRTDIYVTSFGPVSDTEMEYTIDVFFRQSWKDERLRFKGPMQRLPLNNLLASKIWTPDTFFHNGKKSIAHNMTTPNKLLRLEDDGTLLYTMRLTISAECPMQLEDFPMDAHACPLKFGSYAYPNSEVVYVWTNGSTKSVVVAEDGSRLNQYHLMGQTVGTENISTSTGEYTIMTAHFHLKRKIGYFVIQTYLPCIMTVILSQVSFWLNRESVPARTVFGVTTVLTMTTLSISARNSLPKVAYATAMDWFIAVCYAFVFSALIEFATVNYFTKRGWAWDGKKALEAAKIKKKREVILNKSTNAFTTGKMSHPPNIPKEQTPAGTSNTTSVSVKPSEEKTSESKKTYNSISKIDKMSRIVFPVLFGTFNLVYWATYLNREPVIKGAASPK
T9 sequence (P18507 40-467 limits assumed): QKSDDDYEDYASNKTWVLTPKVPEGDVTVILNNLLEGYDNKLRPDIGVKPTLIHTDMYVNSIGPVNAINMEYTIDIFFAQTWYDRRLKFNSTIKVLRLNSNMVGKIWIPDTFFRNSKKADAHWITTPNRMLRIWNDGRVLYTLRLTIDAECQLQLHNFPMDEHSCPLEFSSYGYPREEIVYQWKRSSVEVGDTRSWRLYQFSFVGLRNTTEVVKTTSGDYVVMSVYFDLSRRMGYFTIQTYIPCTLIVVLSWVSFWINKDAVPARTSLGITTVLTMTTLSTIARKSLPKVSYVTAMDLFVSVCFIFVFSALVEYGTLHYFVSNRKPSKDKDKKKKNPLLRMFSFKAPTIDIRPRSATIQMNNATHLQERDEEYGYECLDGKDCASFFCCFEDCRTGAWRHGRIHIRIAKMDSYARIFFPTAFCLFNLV
T9 sequence (P28472 26-473 partner): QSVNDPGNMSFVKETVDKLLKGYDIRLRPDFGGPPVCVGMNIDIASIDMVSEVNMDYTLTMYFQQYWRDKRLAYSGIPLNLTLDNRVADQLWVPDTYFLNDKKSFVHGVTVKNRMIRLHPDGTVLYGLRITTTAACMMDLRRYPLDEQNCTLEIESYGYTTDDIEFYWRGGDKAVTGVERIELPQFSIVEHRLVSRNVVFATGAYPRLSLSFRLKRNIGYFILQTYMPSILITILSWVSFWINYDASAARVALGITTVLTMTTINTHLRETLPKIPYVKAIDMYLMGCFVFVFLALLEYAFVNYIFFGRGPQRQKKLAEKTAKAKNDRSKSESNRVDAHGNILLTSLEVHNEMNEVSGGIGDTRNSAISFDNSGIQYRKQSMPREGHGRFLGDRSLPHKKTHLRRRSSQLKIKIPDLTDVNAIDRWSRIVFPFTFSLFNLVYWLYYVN

healthy subjects = experiment: Safety in healthy volunteers in the PET and EEG studies; type: in vivo, human
Plasma protein binding = type: in vitro ADME
From the text: Free plasma concentrations were used to estimate receptor occupancy.

[3] = 3 and 10 mg/kg p.o. + diazepam 6 mg/kg i.p.

Cc1onc(-c2ccc(F)cc2)c1COc1ccc(C(=O)N2CCS(=O)(=O)CC2)cn1 [basmisanil]
Ki [1]: 458 ± 27 nM | Ki [2]: 510 ± 21 nM | % Inhibition (Adenosine A2A): 9% | % Inhibition (Cannabinoid CB1): 16% | % Inhibition (Muscarinic M3): 4% | % Inhibition (Cholecystokinin CCK1): 10% | % Inhibition (Endothelin ETA): 8% | % Inhibition (Neurokinin NK2): 7% | probe trial, percent time spent in the previous platform quadrant (male Lister Hooded rats; 10 mg/kg p.o. + diazepam 6 mg/kg i.p., 30 min before test): attenuated the diazepam-induced deficit | latency and pathlength across six learning trials (male Lister Hooded rats; [3]): did not significantly reduce the diazepam-induced increase in latency and pathlength | swim speed (male Lister Hooded rats; [3]): no effect on swim speed | receptor occupancy at 240 mg (GABAA-α5 receptors; 14 days, read-out: occupancy of GABAA-α5 receptors): > 90% | receptor occupancy at 240 mg (GABAA-α5 receptors; day 14, 1 h post morning dose, read-out: receptor occupancy): 92 ± 3% | receptor occupancy at 240 mg (GABAA-α5 receptors; day 14, 4 h post morning dose, read-out: receptor occupancy): 94 ± 1.5% | safety and tolerability (healthy subjects; PET and EEG studies): safe and well tolerated | adverse events (healthy subjects; any cohort): no severe adverse events | fraction unbound (Plasma protein binding; human, plasma, primates, including humans): 0.055 | free fraction (Plasma protein binding; primates, including humans): 5.5% | fraction unbound (Plasma protein binding; rat, rats): 0.14
